Assay results as given in patent US7373256B2, “Method for the identification of molecules and biomarkers using chemical, biochemical and biological data” (priority 2005, dated 2008).

Assays:
rats [1] = assay: Study 5: 1H/19F NMR correlation study of urine from rats dosed with 3-fluoroaniline; format: in vivo, rat; conditions: 50 mg/kg, negative covariance with 19F δ-128.4 resonance
Protocol: A number of rats were dosed with 3-fluoroaniline (3-FA) at 50 mg/kg. Urine samples were collected over dry ice (i) pre-dose, (ii) after 0-24 hours, and (iii) after 24-48 hours. ^1H NMR and ^1H-decoupled ^19F NMR spectra were collected. The collection of ^1H NMR spectra was treated as a first data set (i.e., a matrix with one row for each ^1H NMR spectrum, and one column for each ^1H NMR chemical shift variable, n x p) and the collection of ^19F-NMR spectra was treated as a second data set (i.e., a matrix with one row for each ^19F NMR spectrum, and one column for each ^19F NMR chemical shift variable, n×q). The correlation matrix and the covariance matrix (each p×q or q×p) were calculated.
This resonance was selected for the correlation study.
As mentioned above, the correlation matrix and the covariance matrix (each p×q or q×p) were calculated. The correlation between the selected variable (^19F δ-128.4) of the first data set and all of the variables of the second data set (i.e., the range of ^1H δ) is given in the column/row of the correlation matrix associated with this variable (i.e., the column/row for ^19F δ-128.4). The covariance between this variable (^19F δ-128.4) and all of the variables of the second data set (i.e., the range of ^1H δ) is given in the column/row of the covariance matrix associated with this variable (i.e., the column/row for ^19F δ-128.4). […]

rats [2] = assay: Study 7: 1H NMR / UPLC-MS correlation study of urine from rats dosed with hydrazine; format: in vivo, rat; conditions: hydrazine poisoning
Protocol: A number of rats were dosed with hydrazine. Urine samples were collected. ^1H NMR and mass spectra were recorded for each sample. (Note that the mass spectra were recorded using an UPLC-MS experiment, in which individual mass spectra are recorded as function of elution time, here over a period of six minutes with a water-acetonitrile gradient; however, for the present study, these spectra were “summed” in order to present a single mass spectrum for each sample. This gives, in effect, “virtual direct injection mass spectra.” This is a known approach for improving MS detection in complex mixtures.)
The collection of ^1H NMR spectra was treated as a first data set (i.e., a matrix with one row for each ^1H NMR spectrum, and one column for each ^1H NMR chemical shift variable, n×p) and the collection of mass spectra was treated as a second data set (i.e., a matrix with one row for each mass spectrum, and one column for each m/z variable, n×q). The correlation matrix and the covariance matrix (each p×q or q×p) were calculated. A correlation map illustrating a part of the correlation matrix, as a function of both ^1H chemical shift (from about δ 2 to about δ 4.5) and m/z (from about 100 to about 350), is shown in FIG. 21. The correlation is indicated by colour (blue is negative correlation and red is positive correlation). A “summed” ^1H NMR spectrum is shown alongside the ^1H δ axis for illustration. Similarly, a “summed” mass spectrum is shown alongside the m/z axis for illustration.
A correlation map illustrating another (very small) part of the correlation matrix is shown in FIG. 22, specifically for ^1H chemical shift from about δ 8.8 to about δ 9.3 and m/z from about 80 to about 200. Again, a “summed” ^1H NMR spectrum is shown alongside the ^1H δ axis for illustration. Similarly, a “summed” mass spectrum is shown alongside the m/z axis for illustration. […] As expected, the mass spectrum peak at m/z 138 (for NMNA) is highly correlated with the ^1H NMR peaks at about δ 9.12 about δ 8.84 (also for NMNA). […]

rats [3] = conditions: hydrazine poisoning; stated as well known; cited from earlier work

Row | effect on endogenous hippurate level in urine (rats [1]) | Compound | change in urinary creatine (rats [2]; m/z 90, 116) | change in urinary 2-aminoadipate (rats [2]; m/z 98, 116) | change in urinary hippurate (rats [2]; m/z 105, 180) | change in N-methylnicotinamide (NMND) (rats [3]) | change in N-methylnicotinic acid (NMNA) (rats [3])
1 | reduces the amount of hippurate | Nc1cccc(F)c1 [3-fluoroaniline] |  |  |  |  | 
2 |  | NN [hydrazine] | increased | increased | decreased | increase | decrease
